Test results as given in paper PMC4216217 (Journal of Medicinal Chemistry, 2014).
Like-named read-outs stand apart in the source and are kept apart here. Each block holds one compound with its values, some of them ahead of it.

Legend:
rat D2-like receptors = rat D2-like receptors (Rattus norvegicus, UniProt P61169); assay: biochemical; type: binding
[1] = biological target: rat D3 dopamine receptors (Rattus norvegicus, UniProt P19020); assay: biochemical; type: binding
human D3 receptor = human D3 receptor (Homo sapiens, UniProt P35462); assay: cell-based; type: cell-based
Chain of human D3 receptor (P35462 whole entry): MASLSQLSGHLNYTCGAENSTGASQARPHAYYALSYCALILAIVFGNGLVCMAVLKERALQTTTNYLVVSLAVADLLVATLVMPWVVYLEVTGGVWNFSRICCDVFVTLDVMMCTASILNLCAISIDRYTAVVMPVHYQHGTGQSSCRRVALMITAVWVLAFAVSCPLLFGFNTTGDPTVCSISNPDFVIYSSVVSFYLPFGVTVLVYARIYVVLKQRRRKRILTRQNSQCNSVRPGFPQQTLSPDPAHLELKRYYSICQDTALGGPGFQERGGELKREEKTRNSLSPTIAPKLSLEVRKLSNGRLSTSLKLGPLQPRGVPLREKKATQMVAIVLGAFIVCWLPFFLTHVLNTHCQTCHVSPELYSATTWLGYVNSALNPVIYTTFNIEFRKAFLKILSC

Chain of rat D3 dopamine receptors (P19020 whole entry): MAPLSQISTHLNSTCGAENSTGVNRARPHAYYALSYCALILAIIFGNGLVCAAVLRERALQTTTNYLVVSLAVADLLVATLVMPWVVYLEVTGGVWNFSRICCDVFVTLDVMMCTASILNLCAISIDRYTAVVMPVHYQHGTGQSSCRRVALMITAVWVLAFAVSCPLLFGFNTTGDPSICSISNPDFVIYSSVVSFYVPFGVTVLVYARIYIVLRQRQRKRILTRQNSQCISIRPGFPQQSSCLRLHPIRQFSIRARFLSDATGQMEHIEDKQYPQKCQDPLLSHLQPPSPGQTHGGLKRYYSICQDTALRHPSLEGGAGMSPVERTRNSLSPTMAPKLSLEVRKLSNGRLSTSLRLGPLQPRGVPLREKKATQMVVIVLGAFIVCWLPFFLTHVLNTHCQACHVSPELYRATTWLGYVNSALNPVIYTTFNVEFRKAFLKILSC
Chain of rat D2-like receptors (P61169 1-415 isoform P61169-2): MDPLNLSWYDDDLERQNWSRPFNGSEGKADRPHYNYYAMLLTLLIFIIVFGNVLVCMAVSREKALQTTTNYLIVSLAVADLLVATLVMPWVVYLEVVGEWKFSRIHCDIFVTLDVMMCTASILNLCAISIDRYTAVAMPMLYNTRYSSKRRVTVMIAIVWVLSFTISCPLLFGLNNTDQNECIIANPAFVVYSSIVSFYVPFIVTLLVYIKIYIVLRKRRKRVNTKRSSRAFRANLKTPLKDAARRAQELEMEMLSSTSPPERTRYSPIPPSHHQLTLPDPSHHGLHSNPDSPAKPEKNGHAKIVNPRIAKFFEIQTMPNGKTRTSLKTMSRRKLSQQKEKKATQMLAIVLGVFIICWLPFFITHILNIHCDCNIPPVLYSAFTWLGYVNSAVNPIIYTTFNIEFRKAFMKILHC

SMILES: CCCN(CC[C@]1(O)C[C@@H](NC(=O)c2ccc3ccccc3c2)C1)[C@H]1C[C@@H]1c1ccccc1Cl (relative stereo) [(±)-12, N-(cis-3-(2-((((±)-trans)-2-(2-Chlorophenyl)cyclopropyl)(propyl)-amino)ethyl)-3-hydroxycyclobutyl)-2-naphthamide]
Ki (rat D2-like receptors): 503 ± 63 nM

SMILES: CCCN(CC[C@]1(O)C[C@@H](NC(=O)c2ccc3ccccc3c2)C1)[C@H]1C[C@@H]1c1cccc(Cl)c1 (relative stereo) [(±)-13, N-(cis-3-(2-((((±)-trans)-2-(3-Chlorophenyl)cyclopropyl)(propyl)-amino)ethyl)-3-hydroxycyclobutyl)-2-naphthamide]
selectivity D3/D2 [1]: >29000
selectivity for rat D3 receptor over rat D2 receptor [1]: > 10000
Ki ([1]; Ki ± SEM, D3): 26 nM
binding to the rat D2 receptor (rat D2-like receptors; at 100 μM): neither compound showing measurable binding

SMILES: CCCN[C@@H]1C[C@H]1c1ccccc1 [(1R,2S)-9, (1R,2S)-2-Phenyl-N-propylcyclopropanamine]
selectivity for rat D3 receptor over rat D2 receptor [1]: approximately 80 fold

SMILES: CCCN(CC[C@]1(O)C[C@@H](NC(=O)c2ccc3ccccc3c2)C1)[C@@H]1C[C@H]1c1ccc(Cl)cc1 [(1R,2S)-11, N-(cis-3-(2-(((1R,2S)-2-(4-Chlorophenyl)cyclopropyl)(propyl)-amino)ethyl)-3-hydroxycyclobutyl)-2-naphthamide]
binding to the rat D2 receptor (rat D2-like receptors): no appreciable binding
EC50 (human D3 receptor): > 100000 nM
slope of the Schild plot (human D3 receptor; D3 activity stimulated by pramipexole): −0.83
EC50 (human D3 receptor; read-out: agonist activity ED50, β-arrestin binding to human D3, U2OS): > 100000 nM
agonist activity (human D3 receptor; β-arrestin binding to human D3, in words): no agonist activity

SMILES: CCCN[C@H]1C[C@@H]1c1ccccc1 [(1S,2R)-9, (1S,2R)-2-Phenyl-N-propylcyclopropanamine]
selectivity for rat D3 receptor over rat D2 receptor [1]: approximately 80 fold

Second part, led by results:

Ki (rat D2-like receptors): > 100000 nM
SMILES: CCCN(CC[C@]1(O)C[C@@H](NC(=O)c2ccc3ccccc3c2)C1)C1CC1c1ccc(Cl)cc1 (relative stereo) [(±)-11, N-(cis-3-(2-((((±)-trans)-2-(4-Chlorophenyl)cyclopropyl)(propyl)-amino)ethyl)-3-hydroxycyclobutyl)-2-naphthamide]
binding to the rat D2 receptor (rat D2-like receptors): neither compound showing measurable binding

selectivity for rat D3 receptor over rat D2 receptor [1]: 20–30 fold
SMILES: CCCN(CC[C@]1(O)C[C@@H](NC(=O)c2ccc3ccccc3c2)C1)[C@@H]1C[C@H]1c1ccccc1 [(1R,2S)-10, N-(cis-3-Hydroxy-3-(2-(((1R,2S)-2-phenylcyclopropyl)(propyl)amino)-ethyl)cyclobutyl)-2-naphthamide]

selectivity for rat D3 receptor over rat D2 receptor [1]: 20–30 fold
SMILES: CCCN(CC[C@]1(O)C[C@@H](NC(=O)c2ccc3ccccc3c2)C1)[C@H]1C[C@@H]1c1ccccc1 [(1S,2R)-10, N-(cis-3-Hydroxy-3-(2-(((1S,2R)-2-phenylcyclopropyl)(propyl)-amino)ethyl)cyclobutyl)-2-naphthamide]
